Results on two molecules are retold here after US8003666B2, “Hydrate for medical purposes” (priority 2006, dated 2011).

For this assay, the system named is Mycobacterium tuberculosis (bacteria resistant to quinolone). Kind of assay: microbe, parasite or virus in culture. It is filed as cell-based.

In brackets after ≈: the same amount, converted by molar mass. A value given as a limit tells only on which side of the number the result lay.

In the case of `CO[C@H]1/C=C/O[C@@]2(C)Oc3c(C)c(O)c4c(O)c(c(/C=N/N5CCN(C)CC5)c(O)c4c3C2=O)NC(=O)/C(C)=C\C=C\[C@H](C)[C@H](O)[C@@H](C)[C@@H](O)[C@@H](C)[C@H](OC(C)=O)[C@@H]1C` [RFP, rifampicin], the MIC runs as follows: (strain 1 (QR-3)) greater than 128 µg/mL; (strain 2 (QR-6)) greater than 128 µg/mL; (strain 3 (QR-1)) 128 µg/mL (≈ 156 µM); (strain 4 (QR-9)) greater than 128 µg/mL; (strain MDR 1) 16 µg/mL (≈ 19.4 µM); (strain MDR 3) 128 µg/mL (≈ 156 µM). Moreover, the MIC reads like this: (strain MDR 4) 64 µg/mL (≈ 77.8 µM); (strain MDR 5) 32 µg/mL (≈ 38.9 µM); (strain MDR 7) greater than 128 µg/mL; (strain MDR 9) 128 µg/mL (≈ 156 µM); (strain MDR 12) 128 µg/mL (≈ 156 µM); (strain s 1) 16 µg/mL (≈ 19.4 µM).

For `COc1c(N2CC3(CC3)[C@](C)(N)C2)c(F)cc2c(=O)c(C(=O)O)cn([C@@H]3C[C@@H]3F)c12` [Hemihydrate, 7-[(7S)-7-Amino-7-methyl-5-azaspiro[2.4]heptan-5-yl]-6-fluoro-1-[(1R,2S)-2-fluorocyclopropyl]-8-methoxy-1,4-dihydro-4-oxoquinoline-3-carboxylic acid hemihydrate], the MIC by setting is: (strain 1 (QR-3)) 0.125 µg/mL; (strain 2 (QR-6)) 0.5 µg/mL; (strain 3 (QR-1)) 0.25 µg/mL; (strain 4 (QR-9)) 0.25 µg/mL; (strain MDR 1) 0.125 µg/mL; (strain MDR 3) 0.125 µg/mL. Further, the MIC (strain MDR 4) came out at 0.25 µg/mL; the MIC (strain MDR 5) came to 0.5 µg/mL; the MIC (strain MDR 7) amounted to 0.125 µg/mL; the MIC (strain MDR 9) was 0.125 µg/mL; the MIC (strain MDR 12) is 0.125 µg/mL; the MIC (strain s 1) is 1 µg/mL.
